In general, IC50 refers to the midpoint of a concentration-inhibition curve.

Counter-ions that a name gives are not always drawn.

Chain of interaction between p53 and MDM2 proteins (recombinant GST-tagged MDM2) (Q00987 whole entry): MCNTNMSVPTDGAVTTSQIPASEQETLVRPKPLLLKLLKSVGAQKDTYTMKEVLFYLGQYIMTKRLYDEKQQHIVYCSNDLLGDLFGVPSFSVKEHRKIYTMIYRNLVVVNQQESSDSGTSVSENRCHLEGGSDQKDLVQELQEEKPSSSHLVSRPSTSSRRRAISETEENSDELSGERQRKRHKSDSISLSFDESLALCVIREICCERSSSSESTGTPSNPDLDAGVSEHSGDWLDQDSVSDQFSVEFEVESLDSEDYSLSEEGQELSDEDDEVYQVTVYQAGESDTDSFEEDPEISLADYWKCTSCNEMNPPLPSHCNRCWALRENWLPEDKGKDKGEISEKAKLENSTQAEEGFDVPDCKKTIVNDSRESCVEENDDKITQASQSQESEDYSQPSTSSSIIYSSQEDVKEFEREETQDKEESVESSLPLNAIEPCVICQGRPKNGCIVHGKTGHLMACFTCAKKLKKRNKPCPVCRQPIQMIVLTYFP

The first test concerns the target interaction between p53 and MDM2 proteins (recombinant GST-tagged MDM2) (Homo sapiens, UniProt Q00987). In words: HTRF assay of inhibition of the p53-MDM2 interaction (GST-MDM2 / biotinylated p53 peptide).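 Also: FRET read-out from Eu-labelled anti-GST antibody to streptavidin-APC, with 90 nM N-terminally biotinylated p53 peptide and 160 ng/ml GST-MDM2 in Tris-borate saline containing 1 mM DTT, 384-well format.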 The format is binding. The settings on record: HTRF, 0.02% BSA, 37° C. 1 h.
Procedure: The ability of the compounds to inhibit the interaction between p53 and MDM2 proteins was measured by an HTRF (homogeneous time-resolved fluorescence) assay in which recombinant GST-tagged MDM2 binds to a peptide that resembles the MDM2-interacting region of p53 (Lane et al.). Binding of GST-MDM2 protein and p53-peptide (biotinylated on its N-terminal end) is registered by the FRET (fluorescence resonance energy transfer) between Europium (Eu)-labeled anti-GST antibody and streptavidin-conjugated Allophycocyanin (APC).
Test is performed in black flat-bottom 384-well plates (Costar) in a total volume of 40 uL containing: 90 nM biotinylate peptide, 160 ng/ml GST-MDM2, 20 nM streptavidin-APC (PerkinElmerWallac), 2 nM Eu-labeled anti-GST-antibody (PerkinElmerWallac), 0.02% bovine serum albumin (BSA), 1 mM dithiothreitol (DTT) and 20 mM Tris-borate saline (TBS) buffer as follows: Add 10 uL of GST-MDM2 (640 ng/ml working solution) in reaction buffer to each well. […] Incubate at 37° C. for 1 h.
On to `COc1cc(C(=O)OCC(=O)N(C)C)ccc1NC(=O)[C@@H]1N[C@@H](CC(C)(C)C)[C@](C#N)(c2ccc(Cl)cc2F)[C@H]1c1cccc(Cl)c1F` [Example 24, 4-{[(2R,3S,4R,5S)-4-(4-Chloro-2-fluoro-phenyl)-3-(3-chloro-2-fluoro-phenyl)-4-cyano-5-(2,2-dimethyl-propyl)-pyrrolidine-2-carbonyl]-amino}-3-methoxy-benzoic acid dimethylcarbamoylmethyl ester, hydrochloride], for which the IC50 was 0.0139 µM.

For the molecule `COc1cc(C(=O)OCC(=O)N2CCOCC2)ccc1NC(=O)[C@@H]1N[C@@H](CC(C)(C)C)[C@](C#N)(c2ccc(Cl)cc2F)[C@H]1c1cccc(Cl)c1F` [Example 66, 4-{[(2R,3S,4R,5S)-4-(4-Chloro-2-fluoro-phenyl)-3-(3-chloro-2-fluoro-phenyl)-4-cyano-5-(2,2-dimethyl-propyl)-pyrrolidine-2-carbonyl]-amino}-3-methoxy-benzoic acid 2-morpholin-4-yl-2-oxo-ethyl ester], the half-maximal inhibitory concentration (IC50) is 0.00904 µM.

Take `CNCC(=O)OCCOC(=O)c1ccc(NC(=O)[C@@H]2N[C@@H](CC(C)(C)C)[C@](C#N)(c3ccc(Cl)cc3F)[C@H]2c2cccc(Cl)c2F)c(OC)c1` [Example 32, 4-{[(2R,3S,4R,5S)-4-(4-Chloro-2-fluoro-phenyl)-3-(3-chloro-2-fluoro-phenyl)-4-cyano-5-(2,2-dimethyl-propyl)-pyrrolidine-2-carbonyl]-amino}-3-methoxy-benzoic acid 2-(2-methylamino-acetoxy)-ethyl ester, hydrochloride]: the half-maximal inhibitory concentration (IC50) stood at 0.0164 µM.

As for `COc1cc(C(=O)OC[C@H]2O[C@@H](O)[C@H](O)[C@@H](O)[C@@H]2O)ccc1NC(=O)[C@@H]1N[C@@H](CC(C)(C)C)[C@](C#N)(c2ccc(Cl)cc2F)[C@H]1c1cccc(Cl)c1F` [Example 41, 4-{[(2R,3S,4R,5S)-4-(4-Chloro-2-fluoro-phenyl)-3-(3-chloro-2-fluoro-phenyl)-4-cyano-5-(2,2-dimethyl-propyl)-pyrrolidine-2-carbonyl]-amino}-3-methoxy-benzoic acid (2R,3S,4S,5R,6R)-3,4,5,6-tetrahydroxy-tetrahydro-pyran-2-ylmethyl ester; compound with trifluoro-acetic acid], the IC50 was found to be 0.00695 µM.

With `COc1cc(C(=O)OCCOC(=O)[C@@H](C)N)ccc1NC(=O)[C@@H]1N[C@@H](CC(C)(C)C)[C@](C#N)(c2ccc(Cl)cc2F)[C@H]1c1cccc(Cl)c1F` [Example 6, 4-{[(2R,3S,4R,5S)-3-(3-Chloro-2-fluoro-phenyl)-4-(4-chloro-2-fluoro-phenyl)-4-cyano-5-(2,2-dimethyl-propyl)-pyrrolidine-2-carbonyl]-amino}-3-methoxy-benzoic acid 2-((R)-2-amino-propionyloxy)-ethyl ester], the 50% inhibitory concentration (IC50) was 0.0371 µM.

As for `COc1cc(C(=O)OC[C@H](O)[C@@H](O)[C@H](O)[C@H](O)CO)ccc1NC(=O)[C@@H]1N[C@@H](CC(C)(C)C)[C@](C#N)(c2ccc(Cl)cc2F)[C@H]1c1cccc(Cl)c1F` [Example 28, 4-{[(2R,3S,4R,5S)-4-(4-Chloro-2-fluoro-phenyl)-3-(3-chloro-2-fluoro-phenyl)-4-cyano-5-(2,2-dimethyl-propyl)-pyrrolidine-2-carbonyl]-amino}-3-methoxy-benzoic acid (2S,3R,4R,5R)-2,3,4,5,6-pentahydroxy-hexyl ester], the IC50 is 0.00602 µM.

Turning to `COc1cc(C(=O)OCCOC(=O)CN(C)C(=O)OC(C)(C)C)ccc1NC(=O)[C@@H]1N[C@@H](CC(C)(C)C)[C@](C#N)(c2ccc(Cl)cc2F)[C@H]1c1cccc(Cl)c1F` [Example 31, 4-{[(2R,3S,4R,5S)-4-(4-Chloro-2-fluoro-phenyl)-3-(3-chloro-2-fluoro-phenyl)-4-cyano-5-(2,2-dimethyl-propyl)-pyrrolidine-2-carbonyl]-amino}-3-methoxy-benzoic acid 2-[2-(tert-butoxycarbonyl-methyl-amino)-acetoxy]-ethyl ester], the half-inhibitory concentration (IC50) was 0.0137 µM.

Consider `COc1cc(C(=O)N(C)C)ccc1NC(=O)[C@@H]1N[C@@H](CC(C)(C)C)[C@](C#N)(c2ccc(Cl)cc2F)[C@H]1c1cccc(Cl)c1F` [Example 27, (2R,3S,4R,5S)-4-(4-Chloro-2-fluoro-phenyl)-3-(3-chloro-2-fluoro-phenyl)-4-cyano-5-(2,2-dimethyl-propyl)-pyrrolidine-2-carboxylic acid (4-dimethylcarbamoyl-2-methoxy-phenyl)-amide], for which the IC50 is 0.0129 µM.

Take `COc1cc(C(=O)NN)ccc1NC(=O)[C@@H]1N[C@@H](CC(C)(C)C)[C@](C#N)(c2ccc(Cl)cc2F)[C@H]1c1cccc(Cl)c1F` [Example 39, (2R,3S,4R,5S)-4-(4-Chloro-2-fluoro-phenyl)-3-(3-chloro-2-fluoro-phenyl)-4-cyano-5-(2,2-dimethyl-propyl)-pyrrolidine-2-carboxylic acid (4-hydrazinocarbonyl-2-methoxy-phenyl)-amide]: the concentration for half-maximal inhibition (IC50) was 0.0365 µM.

Take `COc1cc(C(=O)OCCOCCOCCOCCOCCOCCO)ccc1NC(=O)[C@@H]1N[C@@H](CC(C)(C)C)[C@](C#N)(c2ccc(Cl)cc2F)[C@H]1c1cccc(Cl)c1F` [Example 52, 4-{[(2R,3S,4R,5S)-4-(4-Chloro-2-fluoro-phenyl)-3-(3-chloro-2-fluoro-phenyl)-4-cyano-5-(2,2-dimethyl-propyl)-pyrrolidine-2-carbonyl]-amino}-3-methoxy-benzoic acid 2-[2-(2-{2-[2-(2-hydroxy-ethoxy)-ethoxy]-ethoxy}-ethoxy)-ethoxy]-ethyl ester, hydrochloride]: the half-maximal inhibitory concentration (IC50) turned out to be 0.00995 µM.

`COc1cc(C(=O)OCC(=O)N[C@@H](CCC(=O)O)C(=O)O)ccc1NC(=O)[C@@H]1N[C@@H](CC(C)(C)C)[C@](C#N)(c2ccc(Cl)cc2F)[C@H]1c1cccc(Cl)c1F` [Example 71, (S)-2-[2-(4-{[(2R,3S,4R,5S)-4-(4-Chloro-2-fluoro-phenyl)-3-(3-chloro-2-fluoro-phenyl)-4-cyano-5-(2,2-dimethyl-propyl)-pyrrolidine-2-carbonyl]-amino}-3-methoxy-benzoyloxy)-acetylamino]-pentanedioic acid]: the concentration for half-maximal inhibition (IC50) came to 0.00594 µM.

Consider `COc1cc(C(=O)OCCN2CCN(C)CC2)ccc1NC(=O)[C@@H]1N[C@@H](CC(C)(C)C)[C@](C#N)(c2ccc(Cl)cc2F)[C@H]1c1cccc(Cl)c1F` [Example 19, 4-{[(2R,3S,4R,5S)-4-(4-Chloro-2-fluoro-phenyl)-3-(3-chloro-2-fluoro-phenyl)-4-cyano-5-(2,2-dimethyl-propyl)-pyrrolidine-2-carbonyl]-amino}-3-methoxy-benzoic acid 2-(4-methyl-piperazin-1-yl)-ethyl ester], for which the IC50 stood at 0.00558 µM.

Still in this test, the particulars now being: read-out: IC50 (uM, 0.02% BSA); HTRF, 0.02% BSA, 37° C. 1 h.
Consider “4-{[(2R,3S,4R,5S)-4-(4-Chloro-2-fluoro-phenyl)-3-(3-chloro-2-fluoro-phenyl)-4-cyano-5-(2,2-dimethyl-propyl)-pyrrolidine-2-carbonyl]-amino}-3-methoxy-benzoic acid, polyethylene glycol-200 ester, trifluoroacetate salt [Example 45]”, for which the IC50 was determined as 0.0105 µM.

These data come from US9371280B2, “Substituted pyrrolidine-2-carboxamides” (Hoffmann-La Roche Inc., priority 2012, dated 2016).
